From patent US20240018119A1, “CARBOXAMIDE DERIVATIVE AND PHARMACEUTICAL COMPOSITION COMPRISING SAME AS ACTIVE INGREDIENT FOR PREVENTING OR TREATING MENTAL ILLNESS” (DAEGU-GYEONGBUK MEDICAL INNOVATION FOUNDATION, priority 2020, published 2024)
Read-outs that look alike come from different tables or passages of the source.

What was measured:
Format in all cases: cell-based
serotonin transporter = biological target: T1, serotonin transporter (Homo sapiens, UniProt P31645); test: Serotonin reuptake inhibition in transporter-transfected HEK-293 cells ([3H]-5-HT); conditions: for Triple reuptake inhibition (Ratio %) SERT: compound 1 μM, [3H]-5-HT, relative to control without compound (100%), lower = more inhibition
T1 construct: expressed in transfected cells; host or cells: HEK-293
Description: (§1) To evaluate the reuptake inhibitory effect on dopamine, the dopamine transporter cDNA was transfected using the HEK-293 cell line, and then sub-seeded in a 24 well plate the next day. After removing the medium, each compound of the Examples or Comparative Examples diluted to 1 μM in uptake buffer was added to a concentration of 200 μl/well and cultured at 37° C. for 15 minutes. 100 μl of uptake buffer containing 20-30 nM [3H]-DA was added and cultured at 37° C. for 5 minutes. The reaction solution was quickly removed and washed three times with 1 ml ice-cold uptake buffer. After dissolving the resultant in 1% SDS (0.5 ml), the degree of binding of radioisotope-labeled dopamine to the transporter was measured.
(§2) For norepinephrine (NE) and serotonin (5-HT), the degree of binding of radioisotope-labeled norepinephrine or serotonin to the transporter was measured in the same manner as above, except that cells transfected with NE or 5-HT transporter cDNA were used and [3H]-NE or [3H]-5-HT was used as a substrate.
(§3) In addition, when evaluating the reuptake inhibitory effect on dopamine, norepinephrine, and serotonin, the same method was performed without treating each compound of the Examples or Comparative Examples as a control, the degree of binding of radioisotope-labeled dopamine, norepinephrine, and serotonin to the transporter was measured, and by using this as a standard (100%), the triple reuptake inhibitory effect was evaluated as a relative ratio (Ratio %). That is, in the control group, the binding of dopamine, norepinephrine, and serotonin to transporters is not inhibited, but when each compound of the Examples is treated and thus the binding is inhibited, the Patio % value decreases.
In addition, in the case of the compound of Comparative Example 1, IC50 was obtained by the same method as the Example Compounds.

[1] = biological target: T2, norepinephrine transporter (Homo sapiens, UniProt P23975); test: Norepinephrine reuptake inhibition in transporter-transfected HEK-293 cells ([3H]-NE); conditions: for Triple reuptake inhibition (Ratio %) NET: compound 1 μM, [3H]-NE, relative to control without compound (100%), lower = more inhibition
T2 construct: expressed in transfected cells; host or cells: HEK-293
Description: as §1, §2, §3
(§4) Meanwhile, the Patio % values were compared, and in the case of the compounds of Examples 6, 9, 10, 19, 20, 22, 24, 28, 30, 31, 32, 33, 35, 41, 42, 48, 49, 51, 55, 56, 59, 61, 63, 64, 65, 66, 74 and 76 with excellent reuptake inhibitory effects on dopamine, norepinephrine and serotonin, the concentration at which the Ratio % is 50% was calculated using a total of 6 concentrations (1 nM, 5 nM, 10 nM, 50 nM, 100 nM, and 1 μM) and expressed as IC50. In addition, in the case of the compound of Comparative Example 1, IC50 was obtained by the same method as the Example Compounds.

dopamine transporter = biological target: T3, dopamine transporter (Homo sapiens, UniProt Q01959); test: Dopamine reuptake inhibition in transporter-transfected HEK-293 cells ([3H]-DA); conditions: for Triple reuptake inhibition (Ratio %) DAT: compound 1 μM, 20-30 nM [3H]-DA, relative to control without compound (100%), lower = more inhibition
T3 construct: expressed in transfected cells; host or cells: HEK-293
Description: as §1, §3, §4

[2] = concentration at which Ratio % is 50%, 6 concentrations 1 nM to 1 μM, read-out: Triple reuptake inhibition (IC50, μM) SERT
[3] = concentration at which Ratio % is 50%, 6 concentrations 1 nM to 1 μM, read-out: Triple reuptake inhibition (IC50, μM) NET
[4] = concentration at which Ratio % is 50%, 6 concentrations 1 nM to 1 μM, read-out: Triple reuptake inhibition (IC50, μM) DAT

T3 sequence (Q01959 whole entry): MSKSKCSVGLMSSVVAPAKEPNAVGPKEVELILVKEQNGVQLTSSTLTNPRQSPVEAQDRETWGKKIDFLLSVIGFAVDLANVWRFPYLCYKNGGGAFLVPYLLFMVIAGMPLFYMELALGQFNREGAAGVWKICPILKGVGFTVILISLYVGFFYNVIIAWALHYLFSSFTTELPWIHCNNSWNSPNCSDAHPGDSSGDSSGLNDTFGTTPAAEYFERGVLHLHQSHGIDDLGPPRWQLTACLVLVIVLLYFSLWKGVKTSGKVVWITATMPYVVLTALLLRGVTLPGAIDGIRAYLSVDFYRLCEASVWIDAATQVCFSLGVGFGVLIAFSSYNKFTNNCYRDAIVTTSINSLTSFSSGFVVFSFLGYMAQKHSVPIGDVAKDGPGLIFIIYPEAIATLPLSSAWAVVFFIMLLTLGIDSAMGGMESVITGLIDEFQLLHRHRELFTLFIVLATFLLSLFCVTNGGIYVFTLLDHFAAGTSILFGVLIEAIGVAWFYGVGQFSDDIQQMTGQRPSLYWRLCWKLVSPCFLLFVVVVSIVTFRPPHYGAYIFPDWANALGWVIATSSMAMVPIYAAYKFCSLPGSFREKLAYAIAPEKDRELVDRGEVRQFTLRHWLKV
T1 sequence (P31645 whole entry): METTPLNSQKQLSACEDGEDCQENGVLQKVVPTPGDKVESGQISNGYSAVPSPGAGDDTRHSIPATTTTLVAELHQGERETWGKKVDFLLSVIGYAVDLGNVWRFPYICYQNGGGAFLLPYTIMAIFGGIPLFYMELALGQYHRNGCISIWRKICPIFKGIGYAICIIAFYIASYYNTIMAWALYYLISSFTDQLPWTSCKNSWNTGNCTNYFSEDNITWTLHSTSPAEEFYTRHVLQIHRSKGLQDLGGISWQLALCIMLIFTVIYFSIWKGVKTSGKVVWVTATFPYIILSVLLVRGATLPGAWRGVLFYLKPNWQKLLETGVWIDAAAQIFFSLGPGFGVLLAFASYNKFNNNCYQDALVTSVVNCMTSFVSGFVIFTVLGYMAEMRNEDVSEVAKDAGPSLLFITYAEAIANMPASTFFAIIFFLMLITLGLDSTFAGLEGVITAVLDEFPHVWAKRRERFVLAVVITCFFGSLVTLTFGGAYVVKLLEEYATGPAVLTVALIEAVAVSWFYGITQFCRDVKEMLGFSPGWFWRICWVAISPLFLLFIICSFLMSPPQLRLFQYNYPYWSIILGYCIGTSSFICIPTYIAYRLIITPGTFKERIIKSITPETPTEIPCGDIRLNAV
T2 sequence (P23975 whole entry, species assumed): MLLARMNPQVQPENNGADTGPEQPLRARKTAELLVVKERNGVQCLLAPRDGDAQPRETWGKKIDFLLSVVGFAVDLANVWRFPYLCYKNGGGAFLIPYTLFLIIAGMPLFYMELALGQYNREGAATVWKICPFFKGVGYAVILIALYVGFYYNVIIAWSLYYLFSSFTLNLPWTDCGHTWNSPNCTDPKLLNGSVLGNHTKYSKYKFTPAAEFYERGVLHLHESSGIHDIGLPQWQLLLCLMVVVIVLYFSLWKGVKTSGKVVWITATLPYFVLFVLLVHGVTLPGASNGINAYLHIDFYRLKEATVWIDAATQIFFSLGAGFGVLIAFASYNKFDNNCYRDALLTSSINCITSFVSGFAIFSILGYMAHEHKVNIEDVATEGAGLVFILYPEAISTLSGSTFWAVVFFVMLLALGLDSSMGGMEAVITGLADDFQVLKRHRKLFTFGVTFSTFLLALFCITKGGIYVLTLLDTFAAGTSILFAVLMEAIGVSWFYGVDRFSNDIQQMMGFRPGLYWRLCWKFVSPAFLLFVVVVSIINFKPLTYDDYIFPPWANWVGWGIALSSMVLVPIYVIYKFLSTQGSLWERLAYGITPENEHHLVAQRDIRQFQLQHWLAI

Compound	Triple reuptake inhibition (Ratio %) SERT (serotonin transporter) [%]	Triple reuptake inhibition (Ratio %) NET [1] [%]	Triple reuptake inhibition (Ratio %) DAT (dopamine transporter) [%]	IC50 (serotonin transporter; [2]) [µM]	IC50 [1, 3] [µM]	IC50 (dopamine transporter; [4]) [µM]	IC50 (serotonin transporter) [µM]	IC50 [1] [µM]	IC50 (dopamine transporter) [µM]
O=C(NCCN1CCN(c2cccc(Cl)c2Cl)CC1)c1ccc2cc(Br)ccc2c1 [Example 4, 6-bromo-N-(2-(4-(2,3-dichlorophenyl)piperazin-1-yl)ethyl)-2-naphthamide]	73.53	121.24	108.51						
O=C(NCCn1ccc(-c2ccc(F)cn2)n1)c1cc2ccccc2[nH]1 [Example 52, N-(2-(3-(5-fluoropyridin-2-yl)-1H-pyrazol-1-yl)ethyl)-1H-indol-2-carboxamide]	93.19	82.74	85.39						
O=C(NC1CCC(Cc2ccccc2)CC1)c1cc2ccccc2[nH]1 (centres unmarked) [Example 44, N-(4-benzylcyclohexyl)-1H-indol-2-carboxamide]	94.19	85.48	73.05						
O=C(c1cc2ccccc2[nH]1)N1CCC(Cc2ccccc2)CC1 [Example 26, (4-benzylpiperidin-1-yl) (1H-indol-2-yl)methanone]	113.81	92.07	124.32						
O=C(NCCN1CCN(CC2CCOCC2)CC1)c1cc2ccccc2[nH]1 [Example 29, N-(2-(4-((tetrahydro-2H-pyran-4-yl)methyl)piperazin-1-yl)ethyl)-1H-indol-2-carboxamide]	94.24	97.94	113.83						
O=C(NCCN1CCC(Cc2ccc(Cl)c(Cl)c2)CC1)c1cc2ccccc2[nH]1 [Example 19, N-(2-(4-(3,4-dichlorobenzyl)piperidin-1-yl)ethyl)-1H-indol-2-carboxamide]	40.39	94.93	36.79	0.51	> 10	0.59			
O=C(NCCN1CCN(Cc2ccccc2)CC1)c1ccc2cc(Br)ccc2c1 [Example 5, N-(2-(4-benzylpiperazin-1-yl)ethyl)-6-bromo-2-naphthamide]	76.90	94.24	96.26						
O=C(NCCN1CCC(Cc2ccc(Cl)c(Cl)c2)CC1)c1ccc2cc(Br)ccc2c1 [Example 9, 6-bromo-N-(2-(4-(3,4-dichlorobenzyl)piperidin-1-yl)ethyl)-2-naphthamide]	9.92	98.42	78.56	3.07		2.91			
O=C(CCN1CCC(Cc2ccccc2)CC1)Nc1cc2ccccc2[nH]1 [Example 76, 3-(4-benzylpiperidin-1-yl)-N-(1H-indol-2-yl)propanamide]	68.60	32.60	36.87				0.811	0.496	0.278

Continued, in another order:

Triple reuptake inhibition (Ratio %) SERT (serotonin transporter) [%]	Triple reuptake inhibition (Ratio %) NET [1] [%]	Triple reuptake inhibition (Ratio %) DAT (dopamine transporter) [%]	IC50 (serotonin transporter; [2]) [µM]	IC50 [1, 3] [µM]	IC50 (dopamine transporter; [4]) [µM]	Compound	IC50 (serotonin transporter) [µM]	IC50 [1] [µM]	IC50 (dopamine transporter) [µM]
38.25	48.43	13.34	0.369	0.092	0.087	O=C(NCCN1CCC(Cc2ccccc2)CC1)c1cc2cc(O)c(O)cc2[nH]1 [Example 63, N-(2-(4-benzylpiperidin-1-yl)ethyl)-5,6-dihydroxy-1H-indol-2-carboxamide]			
53.40	50.81	68.95				O=C(NCCN1CCC(Cc2ccccc2)CC1)c1nc2cc(F)ccc2s1 [Example 60, N-(2-(4-benzylpiperidin-1-yl)ethyl)-5-fluorobenzo(d)thiazol-2-carboxamide]			
70.46	70.02	43.94				O=C(NCCN1CCCC(Cc2ccccc2)C1)c1cc2ccccc2[nH]1 (centres unmarked) [Example 38, N-(2-(3-benzylpiperidin-1-yl)ethyl)-1H-indol-2-carboxamide]			
113.80	86.02	92.83				O=C(NCCN1CCC(Cc2ccccc2)CC1)C1CC1 [Example 69, N-(2-(4-benzylpiperidin-1-yl)ethyl)cyclopropanecarboxamide]			
47.45	67.88	68.93				O=C(NCCN1CCC(Cc2ccccc2)CC1)c1ccc(Cl)c(Cl)c1 [Example 18, N-(2-(4-benzylpiperidin-1-yl)ethyl)-3,4-dichlorobenzamide]			
10.79	73.83	7.57	0.044	5.73	0.049	O=C(NCCN1CCC(Cc2ccc(Cl)c(Cl)c2)CC1)c1cc2cc(O)c(O)cc2[nH]1 [Example 65, N-(2-(4-(3,4-dichlorobenzyl)piperidin-1-yl)ethyl)-5,6-dihydroxy-1H-indol-2-carboxamide]			
41.20	37.73	47.70				NC(=O)c1ccc2[nH]c(C(=O)NCCN3CCC(Cc4ccccc4)CC3)cc2c1 [Example 82, N2-(2-(4-benzylpiperidin-1-yl)ethyl)-1H-indol-2,5-dicarboxamide]			
90.64	70.66	55.54				CC(C)(CN1CCC(Cc2ccccc2)CC1)NC(=O)c1cc2ccccc2[nH]1 [Example 34, N-(1-(4-benzylpiperidin-1-yl)-2-methylpropan-2-yl)-1H-indol-2-carboxamide]			
75.98	94.59	41.80				O=C(NCCN1CCC(Cc2ccccc2)CC1)c1cc2cc(Cl)c(Cl)cc2[nH]1 [Example 47, N-(2-(4-benzylpiperidin-1-yl)ethyl)-5,6-dichloro-1H-indol-2-carboxamide]			
54.81	66.78	28.03	2.04	1.47	0.824	O=C(NCCN1CCC(Cc2ccccc2)CC1)c1cc2cc(F)c(F)cc2[nH]1 [Example 32, N-(2-(4-benzylpiperidin-1-yl)ethyl)-5,6-difluoro-1H-indol-2-carboxamide]			
87.86	95.95	70.22				O=C(O)c1ccc2[nH]c(C(=O)NCCN3CCC(Cc4ccccc4)CC3)cc2c1 [Example 81, 2-((2-(4-benzylpiperidin-1-yl)-ethyl)carbamoyl)-1H-indol-5-carboxylic acid]			
32.42	76.15	38.64				O=C(NCCN1CCC(c2c[nH]c3ccccc23)CC1)c1cc2ccccc2[nH]1 [Example 37, N-(2-(4-(1H-indol-3-yl)piperidin-1-yl)ethyl)-1H-indol-2-carboxamide]			
45.80	43.43	17.60	0.198	0.257	0.198	COc1ccc2[nH]c(C(=O)NCCN3CCC(Cc4ccccc4)CC3)nc2c1 [Example 59, N-(2-(4-benzylpiperidin-1-yl)ethyl)-5-methoxy-1H-benzo[d]imidazol-2-carboxamide]			
